Assay results reported in US9822131B2, “Certain chemical entities, compositions and methods” (Intellikine LLC, priority 2008, dated 2017).

Tested on: Balb/c splenic B cells
Assay: B cell activation and proliferation assay (Alamar Blue)
Type: cell-based
Settings: Mus musculus, read-out: B cell proliferation EC50
Description: The assay is performed in a 96 well microtiter plate using Alamar Blue reduction. Balb/c splenic B cells are purified over a Ficoll-Paque™ PLUS gradient followed by magnetic cell separation using a MACS B cell Isolation Kit (Miletenyi). Cells are plated in 90 ul at 50,000 cells/well in B Cell Media (RPMI+10% FBS+Penn/Strep+50 uM bME+5 mM HEPES). A compound disclosed herein is diluted in B Cell Media and added in a 10 ul volume. Plates are incubated for 30 min at 37 C and 5% CO2 (0.2% DMSO final concentration). A 50 ul B cell stimulation cocktail is then added containing either 10 ug/ml LPS or 5 ug/ml F(ab′)2 Donkey anti-mouse IgM plus 2 ng/ml recombinant mouse IL4 in B Cell Media. […] A volume of 15 uL of Alamar Blue reagent is added to each well and plates are incubated for 5 hours at 37 C and 5% CO2. Alamar Blue fluoresce is read at 560Ex/590Em, and IC50 or EC50 values are calculated using GraphPad Prism 5.

Compound | EC50 [µM]
Cc1cccc2cc(Cn3cnc4c(N)ncnc43)n(-c3ccccc3F)c(=O)c12 [Compound 1] | < 10
Cc1cccc2cc(Cn3nc(I)c4c(N)ncnc43)n(-c3ccccc3F)c(=O)c12 [Compound 2] | < 10
Cc1cccc2cc(Cn3nc(-c4cc(O)cc(F)c4)c4c(N)ncnc43)n(-c3ccccc3F)c(=O)c12 [Compound 3] | < 0.1
Cc1cccc2cc(Cn3nc(C#CC4CC4)c4c(N)ncnc43)n(-c3ccccc3F)c(=O)c12 [Compound 4] | < 1
Cc1ccccc1-n1c(Cn2cnc3c(N)ncnc32)cc2cccc(C)c2c1=O [Compound 5] | < 10
Cc1cccc2cc(Cn3nc(C#CCO)c4c(N)ncnc43)n(-c3ccccc3F)c(=O)c12 [Compound 8] | < 1
Cc1cccc2cc(Cn3nc(-c4ccc(F)c(O)c4)c4c(N)ncnc43)n(-c3ccccc3F)c(=O)c12 [Compound 9] | < 1
Cc1cccc2cc(Cn3nc(-c4cccc(O)c4)c4c(N)ncnc43)n(-c3ccccc3F)c(=O)c12 [Compound 10] | < 1
Cc1ccccc1-n1c(Cn2nc(C#CCO)c3c(N)ncnc32)cc2cccc(C)c2c1=O [Compound 11] | < 1
Cc1ccccc1-n1c(Cn2nc(-c3ccc(F)c(O)c3)c3c(N)ncnc32)cc2cccc(C)c2c1=O [Compound 12] | < 0.1
Cc1ccccc1-n1c(Cn2nc(C#CC3CC3)c3c(N)ncnc32)cc2cccc(C)c2c1=O [Compound 14] | < 1
Cc1cccnc1-n1c(Cn2nc(I)c3c(N)ncnc32)cc2cccc(C)c2c1=O [Compound 15] | < 1
Cc1cccnc1-n1c(Cn2nc(-c3cc(O)cc(F)c3)c3c(N)ncnc32)cc2cccc(C)c2c1=O [Compound 16] | < 0.1
Cc1cccnc1-n1c(Cn2nc(Br)c3c(N)ncnc32)cc2cccc(C)c2c1=O [Compound 17] | < 0.1
Cc1cccnc1-n1c(Cn2nc(Cl)c3c(N)ncnc32)cc2cccc(C)c2c1=O [Compound 18] | < 1
Cc1ccccc1-n1c(Cn2nc(Br)c3c(N)ncnc32)cc2cccc(C)c2c1=O [Compound 19] | < 1
Cc1ccccc1-n1c(Cn2nc(Cl)c3c(N)ncnc32)cc2cccc(C)c2c1=O [Compound 20] | < 1
COc1cc(-c2nn(Cc3cc4cccc(C)c4c(=O)n3-c3ccccc3C)c3ncnc(N)c23)ccc1Cl [Compound 21] | < 1
COc1cc(-c2nn(Cc3cc4cccc(C)c4c(=O)n3-c3ccccc3F)c3ncnc(N)c23)ccc1Cl [Compound 22] | < 10
Cc1ccccc1-n1c(Cn2nc(-c3ccc(Cl)c(O)c3)c3c(N)ncnc32)cc2cccc(C)c2c1=O [Compound 23] | < 0.1
Cc1cccc2cc(Cn3nc(-c4ccc(Cl)c(O)c4)c4c(N)ncnc43)n(-c3ccccc3F)c(=O)c12 [Compound 24] | < 1
Cc1ccccc1-n1c(Cn2nc(-c3ccc(O)c(Cl)c3)c3c(N)ncnc32)cc2cccc(C)c2c1=O [Compound 25] | < 1
Cc1cccc2cc(Cn3nc(-c4ccc(O)c(Cl)c4)c4c(N)ncnc43)n(-c3ccccc3F)c(=O)c12 [Compound 26] | < 10
Cc1ccccc1-n1c(Cn2nc(-c3ccc(F)cc3)c3c(N)ncnc32)cc2cccc(C)c2c1=O [Compound 27] | < 10
Cc1cccc2cc(Cn3nc(C#C[C@@H](C)O)c4c(N)ncnc43)n(-c3ccccc3F)c(=O)c12 [Compound 28] | < 1
Cc1cccc2cc(Cn3nc(-c4ccc(O)c(F)c4)c4c(N)ncnc43)n(-c3ccccc3F)c(=O)c12 [Compound 29] | < 1
Cc1ccccc1-n1c(Cn2nc(-c3ccc(O)c(F)c3)c3c(N)ncnc32)cc2cccc(C)c2c1=O [Compound 30] | < 1

Compound | EC50 [µM]
Cc1ccccc1-n1c(Cn2nc(I)c3c(N)ncnc32)cc2ccccc2c1=O [Compound 31] | < 1
Cc1ccccc1-n1c(Cn2nc(C#C[C@@H](C)O)c3c(N)ncnc32)cc2ccccc2c1=O [Compound 32] | < 1
Cc1cccc2cc(Cn3nc(Cl)c4c(N)ncnc43)n(-c3ccccc3F)c(=O)c12 [Compound 34] | < 1
Cc1cccc2cc(Cn3nc(Br)c4c(N)ncnc43)n(-c3ccccc3F)c(=O)c12 [Compound 35] | < 1
Cc1ccccc1-n1c(Cn2nc(-c3ccc(O)cc3)c3c(N)ncnc32)cc2cccc(C)c2c1=O [Compound 36] | < 1
Cc1ccccc1-n1c(Cn2nc(C#C[C@@H](C)O)c3c(N)ncnc32)cc2cccc(C)c2c1=O [Compound 37] | < 0.1
Cc1cccc2cc(Cn3nc(-c4cccc(Cl)c4)c4c(N)ncnc43)n(-c3ccccc3F)c(=O)c12 [Compound 38] | > 10
Cc1ccccc1-n1c(Cn2nc(-c3cccc(Cl)c3)c3c(N)ncnc32)cc2cccc(C)c2c1=O [Compound 39] | < 10
Cc1cccc2cc(Cn3nc(-c4cccc(F)c4)c4c(N)ncnc43)n(-c3ccccc3F)c(=O)c12 [Compound 40] | < 10
Cc1ccccc1-n1c(Cn2nc(-c3cccc(F)c3)c3c(N)ncnc32)cc2cccc(C)c2c1=O [Compound 41] | < 1
Cc1ccccc1-n1c(Cn2nc(I)c3c(N)ncnc32)cc2cccc(F)c2c1=O [Compound 42] | < 1
Cc1ccccc1-n1c(Cn2nc(C#C[C@@H](C)O)c3c(N)ncnc32)cc2cccc(F)c2c1=O [Compound 43] | < 10
COc1ccc(-c2nn(Cc3cc4cccc(C)c4c(=O)n3-c3ccccc3C)c3ncnc(N)c23)cc1OC [Compound 44] | < 0.1
COc1ccc(-c2nn(Cc3cc4cccc(C)c4c(=O)n3-c3ccccc3C)c3ncnc(N)c23)cc1 [Compound 45] | < 1
Cc1cccc2cc(Cn3nc(-c4ccc(O)cc4)c4c(N)ncnc43)n(-c3ccccc3F)c(=O)c12 [Compound 46] | < 1
COc1ccc(-c2nn(Cc3cc4cccc(C)c4c(=O)n3-c3ccccc3F)c3ncnc(N)c23)cc1OC [Compound 47] | < 1
Cc1ccccc1-n1c(Cn2nc(-c3cnc4[nH]ccc4c3)c3c(N)ncnc32)cc2cccc(C)c2c1=O [Compound 48] | < 0.1
Cc1ccccc1-n1c(Cn2nc(-c3ccc(Cl)cc3)c3c(N)ncnc32)cc2cccc(C)c2c1=O [Compound 49] | < 10
Cc1ccccc1-n1c(Cn2nc(-c3ccc4cc[nH]c4c3)c3c(N)ncnc32)cc2cccc(C)c2c1=O [Compound 50] | < 1
Cc1ccccc1-n1c(Cn2nc(-c3cccc(O)c3)c3c(N)ncnc32)cc2ccccc2c1=O [Compound 51] | < 1
Cc1ccccc1-n1c(Cn2nc(-c3ccc(F)c(O)c3)c3c(N)ncnc32)cc2ccccc2c1=O [Compound 54] | < 0.1
Cc1ccccc1-n1c(Cn2nc(-c3cc(O)cc(F)c3)c3c(N)ncnc32)cc2cccc(F)c2c1=O [Compound 55] | < 0.1
Cc1cccc2cc(Cn3nc(I)c4c(N)ncnc43)n(C3CCCC3)c(=O)c12 [Compound 57] | < 10
Cc1cccc2cc(Cn3nc(C#C[C@@H](C)O)c4c(N)ncnc43)n(C(C)C)c(=O)c12 [Compound 61] | < 1
Cc1cccc2cc(Cn3nc(-c4cccc(O)c4)c4c(N)ncnc43)n(C(C)C)c(=O)c12 [Compound 62] | < 0.1
Cc1cccc2cc(Cn3nc(-c4cc(O)cc(F)c4)c4c(N)ncnc43)n(C3CCCC3)c(=O)c12 [Compound 63] | < 0.1
Cc1cccc2cc(Cn3nc(-c4cc(O)cc(F)c4)c4c(N)ncnc43)n(C(C)C)c(=O)c12 [Compound 66] | < 0.1
